Several values for one entry are separate records, joined by “and”; a condition that tells them apart may be missing. Equal entries are not always repeated. Where two headings read alike, the source gives them in different places.
Assay: Brain distribution study
Type: in vivo, male C57BL/6 mice
Settings: PO 20 mg/kg, male C57BL/6 mice
Description: Compound KL50 dosing solution: 3.39% DMSO+96.61% (10% HP-β-CD in saline) at 2 mg/mL; • 1) Weigh 17.39 mg of compound KL50 into a clean tube. • 2) Add 0.295 mL DMSO into the tube containing the compound. • 3) Vortex the tube for 3 min and sonicate it for 4 min. • 4) Add 8.400 mL 10% HP-β-CD in saline into the tube and vortex the tube for 3 min. Compound I-1 dosing solution: 3.39% DMSO+96.61% (10% HP-β-CD in saline) at 2 mg/mL; • 1) Weigh 16.86 mg Compound I-1 into a clean tube. • 2) Add 0.286 mL DMSO into the tube containing the compound. • 3) Vortex the tube for 3 min and sonicate it for 4 min. • 4) Add 8.144 mL 10% HP-β-CD in saline into the tube and vortex the tube for 3 min.
The in-vivo pharmacokinetic and brain distribution study was conducted under the following parameters. Twenty seven C57BL/6 male mice were purchased from Shanghai JiHui Laboratory Animal Co. LTD. Each mouse weighted from 16 g to 17 g. The mice were fasted overnight and fed post 4 hr sampling. Compound KL50 and Compound I-I were administered via oral gavage (PO) at a dose of 20 mg/kg (10 mL/kg). After dosing, sampling was completed at 0.083, 0.167, 0.333, 0.5, 0.75, 1, 2, 4 and 8 hr post dose, with three mice sacrificed at each time point.
Terminal bleeding for plasma and brain was completed at each time point. Approximately 110 μL blood per time point was collected into a K2EDTA tube via the facial vein. The blood sample was put on wet ice and centrifuged to obtain plasma sample (2000 g, 5 min under 4° C.) within 15 minutes. Plasma samples were acidified with 6 μL of formic acid for every 54 μL of plasma. After blood collection, a mid-line incision was made in the animal's scalp and the skin was retracted. The skull overlying the brain was removed. Then, the whole brain was collected, rinsed with cold saline, dried on filtrate paper, and weighed; and then snap frozen by placing the brain into dry-ice. Plasma samples were stored at approximately −70° C. until analysis. Brain tissue was homogenized with 3 volumes (v/w) of PBS (1% FA) and then analyzed with LC-MS/MS. The concentration of study drug was corrected with a dilution factor of four as following: Brain concentration=brain homogenate conc.×4, assuming 1 g wet brain tissue equals to 1 mL

NC(=O)c1ncn2c(=O)n(CCF)nnc12 [KL-50, 3-(2-fluoroethyl)-4-oxo-3H,4H-imidazo[4,3-d][1,2,3,5]tetrazine-8-carboxamide]
Brain Concentration/Plasma Concentration, Individuals (0.083 hr, 20 mg/kg): 0.0770 and 0.0693
brain Concentration, Individuals (0.083 hr, 20 mg/kg): 1970 ng/g and 1940 ng/g
Brain Concentration/Plasma Concentration, Individuals (0.167 hr, 20 mg/kg): 0.123 and 0.156
brain Concentration, Individuals (0.167 hr, 20 mg/kg): 2810 ng/g and 2820 ng/g
Brain Concentration/Plasma Concentration, Individuals (0.333 hr, 20 mg/kg): 0.206 and 0.213
brain Concentration, Individuals (0.333 hr, 20 mg/kg): 2980 ng/g and 4450 ng/g
Brain Concentration/Plasma Concentration, Individuals (0.5 hr, 20 mg/kg): 0.260 and 0.250
brain Concentration, Individuals (0.5 hr, 20 mg/kg): 3230 ng/g and 3830 ng/g
Brain Concentration/Plasma Concentration, Individuals (0.75 hr, 20 mg/kg): 0.278 and 0.331
brain Concentration, Individuals (0.75 hr, 20 mg/kg): 3060 ng/g and 3380 ng/g
Brain Concentration/Plasma Concentration, Individuals (1 hr, 20 mg/kg): 0.345 and 0.266
brain Concentration, Individuals (1 hr, 20 mg/kg): 2530 ng/g and 3270 ng/g
Brain Concentration/Plasma Concentration, Individuals (2 hr, 20 mg/kg): 0.347 and 0.335
brain Concentration, Individuals (2 hr, 20 mg/kg): 953 ng/g and 1530 ng/g
Brain Concentration/Plasma Concentration, Individuals (4 hr, 20 mg/kg): 0.269 and 0.250
brain Concentration, Individuals (4 hr, 20 mg/kg): 184 ng/g and 427 ng/g and 199 ng/g
Brain Concentration/Plasma Concentration, Individuals (8 hr, 20 mg/kg): 0.175 and 0.244
brain Concentration, Individuals (8 hr, 20 mg/kg): 85.3 ng/g and 18.2 ng/g and 45.2 ng/g
AUCINF (brain): 7213 ng·h/g
AUClast (brain): 7128 ng·h/g
concentration at 0.083 hr (male, C57BL/6, mouse, brain, po, 20 mg/kg, 0.083 hr, N=3, read-out: brain Concentration, Mean): 1820 ng/g
concentration at 0.083 hr (male, C57BL/6, mouse, brain, po, 20 mg/kg, 0.083 hr, read-out: brain Concentration, Individuals): 1540 ng/g
concentration at 0.167 hr (male, C57BL/6, mouse, brain, po, 20 mg/kg, 0.167 hr, N=3, read-out: brain Concentration, Mean): 2940 ng/g
concentration at 0.167 hr (male, C57BL/6, mouse, brain, po, 20 mg/kg, 0.167 hr, read-out: brain Concentration, Individuals): 3180 ng/g
concentration at 0.333 hr (male, C57BL/6, mouse, brain, po, 20 mg/kg, 0.333 hr, N=3, read-out: brain Concentration, Mean): 3690 ng/g
concentration at 0.333 hr (male, C57BL/6, mouse, brain, po, 20 mg/kg, 0.333 hr, read-out: brain Concentration, Individuals): 3630 ng/g
concentration at 0.5 hr (male, C57BL/6, mouse, brain, po, 20 mg/kg, 0.5 hr, N=3, read-out: brain Concentration, Mean): 3600 ng/g
concentration at 0.5 hr (male, C57BL/6, mouse, brain, po, 20 mg/kg, 0.5 hr, read-out: brain Concentration, Individuals): 3730 ng/g
concentration at 0.75 hr (male, C57BL/6, mouse, brain, po, 20 mg/kg, 0.75 hr, N=3, read-out: brain Concentration, Mean): 3250 ng/g
concentration at 0.75 hr (male, C57BL/6, mouse, brain, po, 20 mg/kg, 0.75 hr, read-out: brain Concentration, Individuals): 3300 ng/g
concentration at 1 hr (male, C57BL/6, mouse, brain, po, 20 mg/kg, 1 hr, N=3, read-out: brain Concentration, Mean): 2910 ng/g
concentration at 1 hr (male, C57BL/6, mouse, brain, po, 20 mg/kg, 1 hr, read-out: brain Concentration, Individuals): 2920 ng/g
concentration at 2 hr (male, C57BL/6, mouse, brain, po, 20 mg/kg, 2 hr, N=3, read-out: brain Concentration, Mean): 1140 ng/g
concentration at 2 hr (male, C57BL/6, mouse, brain, po, 20 mg/kg, 2 hr, read-out: brain Concentration, Individuals): 934 ng/g
concentration at 4 hr (male, C57BL/6, mouse, brain, po, 20 mg/kg, 4 hr, N=3): 270 ng/g
concentration at 8 hr (male, C57BL/6, mouse, brain, po, 20 mg/kg, 8 hr, N=3): 49.6 ng/g
Kp (male, C57BL/6, mouse, brain/plasma, po, 20 mg/kg, AUCbrain/AUCplasma, heading: AUCbrain/AUCplasma): 25.1%
Kp at 0.083 hr (male, C57BL/6, mouse, brain/plasma, po, 20 mg/kg, 0.083 hr, N=3, read-out: Brain Concentration/Plasma Concentration, Mean): 0.0718
Kp at 0.083 hr (male, C57BL/6, mouse, brain/plasma, po, 20 mg/kg, 0.083 hr, read-out: Brain Concentration/Plasma Concentration, Individuals): 0.0691
Kp at 0.167 hr (male, C57BL/6, mouse, brain/plasma, po, 20 mg/kg, 0.167 hr, N=3, read-out: Brain Concentration/Plasma Concentration, Mean): 0.136
Kp at 0.167 hr (male, C57BL/6, mouse, brain/plasma, po, 20 mg/kg, 0.167 hr, read-out: Brain Concentration/Plasma Concentration, Individuals): 0.13
Kp at 0.333 hr (male, C57BL/6, mouse, brain/plasma, po, 20 mg/kg, 0.333 hr, N=3, read-out: Brain Concentration/Plasma Concentration, Mean): 0.203
Kp at 0.333 hr (male, C57BL/6, mouse, brain/plasma, po, 20 mg/kg, 0.333 hr, read-out: Brain Concentration/Plasma Concentration, Individuals): 0.191
Kp at 0.5 hr (male, C57BL/6, mouse, brain/plasma, po, 20 mg/kg, 0.5 hr, N=3, read-out: Brain Concentration/Plasma Concentration, Mean): 0.257
Kp at 0.5 hr (male, C57BL/6, mouse, brain/plasma, po, 20 mg/kg, 0.5 hr, read-out: Brain Concentration/Plasma Concentration, Individuals): 0.259
Kp at 0.75 hr (male, C57BL/6, mouse, brain/plasma, po, 20 mg/kg, 0.75 hr, N=3, read-out: Brain Concentration/Plasma Concentration, Mean): 0.318
Kp at 0.75 hr (male, C57BL/6, mouse, brain/plasma, po, 20 mg/kg, 0.75 hr, read-out: Brain Concentration/Plasma Concentration, Individuals): 0.344
Kp at 1 hr (male, C57BL/6, mouse, brain/plasma, po, 20 mg/kg, 1 hr, N=3, read-out: Brain Concentration/Plasma Concentration, Mean): 0.296
Kp at 1 hr (male, C57BL/6, mouse, brain/plasma, po, 20 mg/kg, 1 hr, read-out: Brain Concentration/Plasma Concentration, Individuals): 0.278
Kp at 2 hr (male, C57BL/6, mouse, brain/plasma, po, 20 mg/kg, 2 hr, N=3, read-out: Brain Concentration/Plasma Concentration, Mean): 0.348
Kp at 2 hr (male, C57BL/6, mouse, brain/plasma, po, 20 mg/kg, 2 hr, read-out: Brain Concentration/Plasma Concentration, Individuals): 0.362
Kp at 4 hr (male, C57BL/6, mouse, brain/plasma, po, 20 mg/kg, 4 hr, N=3, read-out: Brain Concentration/Plasma Concentration, Mean): 0.231
Kp at 4 hr (male, C57BL/6, mouse, brain/plasma, po, 20 mg/kg, 4 hr, read-out: Brain Concentration/Plasma Concentration, Individuals): 0.174
Kp at 8 hr (male, C57BL/6, mouse, brain/plasma, po, 20 mg/kg, 8 hr, N=3, read-out: Brain Concentration/Plasma Concentration, Mean): 0.233
Kp at 8 hr (male, C57BL/6, mouse, brain/plasma, po, 20 mg/kg, 8 hr, read-out: Brain Concentration/Plasma Concentration, Individuals): 0.28
Cmax (mouse, brain): 3690 ng/g
MRT inf (mouse, brain): 1.57 h
Tmax (mouse, brain): 0.333 h
half-life (mouse, brain): 1.18 h

From US20240400572A1, “COMPOUNDS AND METHODS FOR TREATING CANCERS THAT ARE MGMT DEFICIENT REGARDLESS OF MMR STATUS” (Yale University, priority 2021, published 2024)
